≈ marks a conversion by molar mass, not a printed value.
tested on: AGE production; assay: Assay of inhibition effect on AGE production (BSA with fructose and glucose, fluorescence analysis); type: biochemical, bovine; details: 10 mg/ml BSA, 0.2 M fructose and glucose, 37° for 7 days; fluorescence Ex 360 nm/Em 465 nm; average ± standard deviation
Description: After preparing 10 mg/ml bovine serum albumin (BSA) dissolved in 50 mM of phosphate buffer (pH 7.4), AGE production was induced by culturing the mixture of 0.2 M of fructose and glucose at 37 °C for 7 days. The compounds extracted from Morus Bark and prepared from Example 1 to 8 was handled in the concentration of 0.1 μg/Ml respectively. (All the compounds were dissolved in 100% of ethanol.) Pyridoxamine known for AGE inhibitor was used as a positive control group. AGE production was induced by using only fructose and glucose to BSA culturing at 37 °C for 7 days. It was handled in the concentration of 0.1 μg/Ml to 1000 μg/Ml.
After 7 days, the amount of AGE produced in culture medium was measured by using microplate reader (Excitation: 360 nm, Emission: 465 nm, fluorescence analysis).
The rate of inhibiting the production was counted by the following numerical formula. […] Also, the average and standard deviation of IC50 value were calculated from at least 3 independent experiments.
The rate of inhibiting the production (%)=100−(Fluorescence intensity of Experimental group−Fluorescence intensity of Reference)/(Fluorescence intensity of Control group−Fluorescence intensity of Control-Reference)×100

Row | SMILES | IC50 [µM] | IC50 value [mg/L]
1 | CC1=C[C@H]2c3c(O)cc(-c4cc5ccc(O)cc5o4)cc3O[C@@]3(c4ccc(O)cc4O)Oc4cc(O)ccc4[C@H](C1)[C@@H]23 [Example. 1, Mulberrofuran G] | 79.5 ± 19.4 | 44.7 ± 10.9 (≈ 79.5 µM)
2 | CC12CC(c3ccc(O)cc3O1)C13OC1(c1ccc(O)cc1O)Oc1cc(/C=C/c4ccc(O)cc4O)cc(O)c1C3C2=O (centres unmarked) [Example. 4, Kuwanon Z] | 46.1 ± 11.8 | 27.4 ± 7.0 (≈ 46.1 µM)
3 | Oc1cc(O)cc(/C=C/c2ccc(O)cc2O)c1 [Example. 5, Oxyresveratrol] | 19.3 ± 4.1 | 4.7 ± 1.0 (≈ 19.2 µM)
4 | O=C1CC(c2ccc(O)cc2O)Oc2cc(O)cc(O)c21 (centres unmarked) [Example. 6, 2′,4′,5,7-tetrahydroxyflavanone] | 96.2 ± 10.1 | 27.7 ± 2.9 (≈ 96.1 µM)
5 | CC(C)(O)CCc1c(-c2ccc(O)cc2O)oc2cc3c(c(O)c2c1=O)C=CC(C)(C)O3 [Example. 7, Morusignin L] | 160 ± 16.7 | 70.1 ± 7.3 (≈ 160 µM)
6 | O=C1c2c(O)cc(O)cc2OC(c2ccc(O)cc2O)C1O (centres unmarked) [Example. 8, Dihydromorin] | 81.9 ± 3.3 | 24.9 ± 1.0 (≈ 81.8 µM)
7 | Cc1ncc(CO)c(CN)c1O [Pyridoxamine, reference compound] | 747 ± 213 | 125.7 ± 35.8 (≈ 747 µM)
